Experiments:
EphA2-ephrinA1 binding = biological target: T1, EphA2-ephrinA1 binding (Mus musculus, UniProt Q03145); assay: ELISA EphA2-ephrinA1 binding (displacement and saturation)
T1 construct: we immobilized EphA2-Fc- ectodomain on proper ELISA plates; purchased R&D systems 639-A2 (EphA2-Fc); BT602 (biotinylated ephrinA1-Fc)
Procedure: (§1) Our chemical collection (Table S1) was stocked in a 20 mM dimethyl sulfoxide (DMSO) solution and we performed binding assay at a concentration of 200 µM. Only compounds displacing more than 40% ephrinA1 from EphA2 receptor were considered for a full concentration-binding curve. […] The day after wells were washed three times with washing buffer (PBS +0.05% tween20, pH 7.5) and blocked with 300 µl of blocking solution (PBS +0.5% BSA) for 1 hour at 37°C. Compounds were added to the wells at proper concentration in 1% dimethyl sulfoxide (DMSO) and incubated at 37°C for 1 hour. Biotinylated ephrinA1-Fc (R&D BT602) was added at 37°C for 4 hours at 30 ng/ml in displacement assays or in a range from 1 to 2000 ng/ml in saturation studies. […] The reaction was stopped with 3N HCl 100 µl/well and the absorbance was measured using an ELISA plate reader (Sunrise, TECAN, Switzerland) at 450 nm.
The IC50 value was determined using one-site competition non-linear regression and Kd values of the curves with or without antagonists were calculated using one-binding site non-linear regression analysis with Prism software (GraphPad Software Inc.). The Ki was obtained using Schild plot where Log[DR-1] is a function of the negative Log10 of the inhibitor concentration. The Hill's coefficient was calculated using linear fitting to evaluate whether the inhibition was competitive or uncompetitive.
To identify compounds interfering with EphA2-ephrinA1 binding we immobilized EphA2-Fc- ectodomain on proper ELISA plates and binding of biotinylated-ephrin-A1-Fc was detected using the colorimetric reaction developed by streptavidine-HRP and tetramethylbenzidine.

EphA2 [1] = biological target: T2, EphA2 (Homo sapiens, UniProt P29317); settings: up to 100 µM
Procedure: Recombinant human EphA2 enzyme activity was evaluated with LANCE® method using ATP and Ulight-TK peptide as substrate (http://las.perkinelmer.com/).

IGFR1β = biological target: T3, IGFR1β (Homo sapiens, UniProt P08069); assay: IGFR1β activity, alpha Technology; assay type: cell-based; settings: 100 µM, 5 nM IGF1
T3 construct: in HepG2 or A431 cells, respectively; endogenous in cells; host or cells: A431 according to b24; HepG2 according to the order in the legend b55
Procedure: (§2) Cells were stimulated with 5 nM IGF1 or 100 nM insulin for 10 minutes, lysed and a fluorescence acceptor (alphaLISA protein A beads coated with anti-phospho-IRKβ or -IGFR1β) added for 2 hours. A fluorescence donor (streptavidin coupled-beads) coated with an antibody towards IRKβ or IGFR1β was incubated for 2 hours and the signal was measured at λex = 680 nm and λem = 500 nm and 600 nm using a microplate reader (EnVision, Perkin Elmer, Waltham, MA, USA).
(§3) These assays were performed at CEREP (Celle L'Evescault, France).
(§4) A, B) EGFR phosphorylation was induced by 30 ng/ml and 10 ng/ml EGF on PC3 (A) and HT29 (B) cells, respectively. […] Data are the means of two experiments ± st. err.

EphA kinases = assay: ELISA displacement of biotinylated ephrinA1-Fc from immobilized EphA-Fc ectodomains; assay type: binding; settings: biotinylated ephrinA1-Fc at KD concentration
Procedure: as §1
Data are the means of at least three independent experiments ± st. err.

IRKβ = biological target: T4, IRKβ (Homo sapiens, UniProt P06213); assay: IRKβ activity, alpha Technology; assay type: cell-based; settings: 100 µM, 100 nM insulin
T4 construct: in HepG2 or A431 cells, respectively; endogenous in cells; host or cells: HepG2 according to b24; A431 according to the order in the legend b55
Procedure: as §2, §3, §4

EGFR = EGFR (Homo sapiens, UniProt P00533); assay: Phosphorylated-EGFR sandwich ELISA in PC3 cells; assay type: cell-based; settings: 100 µM, 30 ng/ml EGF
Procedure: (§5) Cells were seeded in 12-well plates at concentration of 10^5cells/ml in complete medium until they reached ∼40% confluence and serum starved overnight. The day after cells were treated with compounds under study, vehicle or standard drug, stimulated with the proper agonist, rinsed with sterile PBS and solubilized in lysis buffer. The lysates were resuspended and rocked at 4°C for 30 minutes and then centrifuged at 14000 xg for 5 minutes. The protein content of supernatant was measured with BCA protein assay kit (Thermo scientific), standardized to 200 µg/ml and transferred into a clean test tube ready to be used.
(§6) EphA2-, EphB4- and EGFR-phosphorylation were measured in cell lysates using DuoSet®IC Sandwich ELISA (RnD Systems, #DYC4056, #DYC4057 and #DYC1095, respectively) following manufacturer's protocol. […] The day after wells were washed and blocked for 1 hour at room temperature. After that, wells were washed and 100 µl/well of lysates were added at room temperature for 2 hours; wells were washed and incubated with Detection Antibody at room temperature for 2 hours.
as §4

VEGFR = VEGFR activity, cellular dielectric spectroscopy in HUVE cells; assay type: cell-based; settings: 100 µM, 0.1 nM VEGF
Procedure: Impedance measurement was monitored for 10 minutes. VEGF receptor tyrosine kinase inhibitor II (Calbiochem-Merck, Darmstadt, Germany) was used as a standard reference.
as §3, §4

EphA2 [2] = biological target: T2, EphA2; assay: Phosphorylated-EphA2 sandwich ELISA in PC3 cell lysates; assay type: cell-based; set-up: their known ability to naturally express EphA2; endogenous in cells; host or cells: PC3 (A5); settings: PC3 cells
Procedure: as §5, §6
EphB4 phosphorylation was stimulated with 3 µg/ml ephrinB2-Fc, preclustered with 0.3 µg/ml IgG Fc fragment on T47D cells (G, H, I). […] Phospho-EphA2/B4 levels are relative to ephrinA1/B2-Fc+DMSO. Data are the means of at least three independent experiment ± st. err. One-way ANOVA followed by Dunnet's post test was performed comparing Fc to all other columns for Fig A, D, G and ephrinA1-Fc+DMSO to all other columns for Fig B,C,E, F, H, I. *, p<0.05, **, p<0.01.

T1 sequence (Q03145 26-538 limits assumed): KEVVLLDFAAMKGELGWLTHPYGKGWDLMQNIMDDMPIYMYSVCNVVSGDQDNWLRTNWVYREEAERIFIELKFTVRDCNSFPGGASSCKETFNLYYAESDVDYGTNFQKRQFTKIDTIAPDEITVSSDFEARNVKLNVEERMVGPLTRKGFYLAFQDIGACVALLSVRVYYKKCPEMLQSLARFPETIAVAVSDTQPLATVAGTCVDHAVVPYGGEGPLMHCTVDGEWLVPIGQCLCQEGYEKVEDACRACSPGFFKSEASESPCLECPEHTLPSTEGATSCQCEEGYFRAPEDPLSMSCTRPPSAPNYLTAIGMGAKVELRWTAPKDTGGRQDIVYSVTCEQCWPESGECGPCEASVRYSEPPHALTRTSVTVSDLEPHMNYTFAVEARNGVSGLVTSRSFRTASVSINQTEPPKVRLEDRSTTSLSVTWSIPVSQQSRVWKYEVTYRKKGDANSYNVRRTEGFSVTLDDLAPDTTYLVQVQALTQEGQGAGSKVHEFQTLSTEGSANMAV
T2 sequence (P29317 24-976): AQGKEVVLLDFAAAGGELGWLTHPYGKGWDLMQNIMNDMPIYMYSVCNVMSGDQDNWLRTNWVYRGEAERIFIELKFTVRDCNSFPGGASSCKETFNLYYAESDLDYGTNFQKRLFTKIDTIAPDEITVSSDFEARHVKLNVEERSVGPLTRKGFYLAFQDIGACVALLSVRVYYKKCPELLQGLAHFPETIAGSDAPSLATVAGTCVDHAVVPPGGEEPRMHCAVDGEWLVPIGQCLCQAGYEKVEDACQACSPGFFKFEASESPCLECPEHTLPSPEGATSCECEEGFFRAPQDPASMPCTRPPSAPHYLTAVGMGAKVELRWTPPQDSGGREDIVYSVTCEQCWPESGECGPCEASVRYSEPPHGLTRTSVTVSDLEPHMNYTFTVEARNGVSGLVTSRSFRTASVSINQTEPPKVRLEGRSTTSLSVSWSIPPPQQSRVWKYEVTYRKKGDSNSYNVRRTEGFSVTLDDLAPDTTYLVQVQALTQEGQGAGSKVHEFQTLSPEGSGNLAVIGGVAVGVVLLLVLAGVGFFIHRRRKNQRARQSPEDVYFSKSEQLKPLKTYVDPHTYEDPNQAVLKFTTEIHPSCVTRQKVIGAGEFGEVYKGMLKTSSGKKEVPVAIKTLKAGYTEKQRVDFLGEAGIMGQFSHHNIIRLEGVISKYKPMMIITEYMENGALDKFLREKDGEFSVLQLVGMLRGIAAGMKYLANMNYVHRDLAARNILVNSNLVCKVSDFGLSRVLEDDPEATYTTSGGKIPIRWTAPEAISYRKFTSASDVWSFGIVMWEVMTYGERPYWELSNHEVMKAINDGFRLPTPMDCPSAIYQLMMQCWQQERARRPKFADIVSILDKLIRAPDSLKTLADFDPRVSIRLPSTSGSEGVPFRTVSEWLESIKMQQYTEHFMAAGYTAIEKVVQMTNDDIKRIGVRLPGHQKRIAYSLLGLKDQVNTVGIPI
Sequence of EGFR (P00533 25-1210): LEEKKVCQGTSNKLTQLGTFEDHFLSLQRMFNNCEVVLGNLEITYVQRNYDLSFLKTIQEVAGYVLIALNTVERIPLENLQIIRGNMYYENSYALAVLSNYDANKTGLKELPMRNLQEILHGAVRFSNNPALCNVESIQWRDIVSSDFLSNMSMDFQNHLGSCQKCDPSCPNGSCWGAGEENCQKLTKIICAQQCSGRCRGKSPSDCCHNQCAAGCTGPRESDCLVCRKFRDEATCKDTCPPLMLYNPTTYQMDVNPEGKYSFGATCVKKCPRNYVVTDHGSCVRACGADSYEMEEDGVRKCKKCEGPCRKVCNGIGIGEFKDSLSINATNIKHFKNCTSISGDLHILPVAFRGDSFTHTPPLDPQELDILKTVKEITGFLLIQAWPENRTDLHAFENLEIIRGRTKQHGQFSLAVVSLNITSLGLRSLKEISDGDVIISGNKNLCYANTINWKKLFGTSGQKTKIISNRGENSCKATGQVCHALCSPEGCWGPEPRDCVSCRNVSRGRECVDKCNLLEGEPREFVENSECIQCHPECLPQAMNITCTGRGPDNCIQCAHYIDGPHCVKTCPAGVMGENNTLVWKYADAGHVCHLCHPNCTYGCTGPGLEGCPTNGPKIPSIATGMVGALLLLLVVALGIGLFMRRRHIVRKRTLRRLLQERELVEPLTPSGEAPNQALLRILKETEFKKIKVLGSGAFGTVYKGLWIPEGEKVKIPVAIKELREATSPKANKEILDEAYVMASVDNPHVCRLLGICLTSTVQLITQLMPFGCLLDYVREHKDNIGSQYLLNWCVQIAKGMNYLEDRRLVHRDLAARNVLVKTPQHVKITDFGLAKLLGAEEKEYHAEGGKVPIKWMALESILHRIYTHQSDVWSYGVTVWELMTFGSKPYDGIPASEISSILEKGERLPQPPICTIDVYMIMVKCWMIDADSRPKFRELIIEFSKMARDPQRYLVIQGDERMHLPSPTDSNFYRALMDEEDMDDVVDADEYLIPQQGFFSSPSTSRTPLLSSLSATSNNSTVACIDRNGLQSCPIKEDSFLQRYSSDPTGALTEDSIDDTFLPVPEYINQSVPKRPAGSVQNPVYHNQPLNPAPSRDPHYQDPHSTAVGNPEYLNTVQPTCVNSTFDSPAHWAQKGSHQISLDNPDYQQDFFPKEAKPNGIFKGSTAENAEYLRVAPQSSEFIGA
T3 sequence (P08069 741-1367 limits assumed): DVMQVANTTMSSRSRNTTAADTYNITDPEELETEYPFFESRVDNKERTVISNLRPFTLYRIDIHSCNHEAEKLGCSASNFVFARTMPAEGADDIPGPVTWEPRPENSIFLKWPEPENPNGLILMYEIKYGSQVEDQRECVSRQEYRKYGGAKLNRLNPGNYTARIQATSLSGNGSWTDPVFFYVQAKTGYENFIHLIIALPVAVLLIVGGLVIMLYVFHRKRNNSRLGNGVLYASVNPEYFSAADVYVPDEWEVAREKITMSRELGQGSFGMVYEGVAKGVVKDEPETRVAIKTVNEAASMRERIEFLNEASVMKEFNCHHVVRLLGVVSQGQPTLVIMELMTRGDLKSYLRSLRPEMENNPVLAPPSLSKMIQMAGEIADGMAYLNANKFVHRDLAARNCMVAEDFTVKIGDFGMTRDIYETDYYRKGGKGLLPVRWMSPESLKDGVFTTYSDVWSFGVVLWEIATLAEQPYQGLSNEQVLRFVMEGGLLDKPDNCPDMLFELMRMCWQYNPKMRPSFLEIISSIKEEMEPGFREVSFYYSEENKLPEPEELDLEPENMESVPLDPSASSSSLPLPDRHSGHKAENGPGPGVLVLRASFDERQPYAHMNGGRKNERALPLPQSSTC
T3 sequence (P08069 31-736 partner limits assumed): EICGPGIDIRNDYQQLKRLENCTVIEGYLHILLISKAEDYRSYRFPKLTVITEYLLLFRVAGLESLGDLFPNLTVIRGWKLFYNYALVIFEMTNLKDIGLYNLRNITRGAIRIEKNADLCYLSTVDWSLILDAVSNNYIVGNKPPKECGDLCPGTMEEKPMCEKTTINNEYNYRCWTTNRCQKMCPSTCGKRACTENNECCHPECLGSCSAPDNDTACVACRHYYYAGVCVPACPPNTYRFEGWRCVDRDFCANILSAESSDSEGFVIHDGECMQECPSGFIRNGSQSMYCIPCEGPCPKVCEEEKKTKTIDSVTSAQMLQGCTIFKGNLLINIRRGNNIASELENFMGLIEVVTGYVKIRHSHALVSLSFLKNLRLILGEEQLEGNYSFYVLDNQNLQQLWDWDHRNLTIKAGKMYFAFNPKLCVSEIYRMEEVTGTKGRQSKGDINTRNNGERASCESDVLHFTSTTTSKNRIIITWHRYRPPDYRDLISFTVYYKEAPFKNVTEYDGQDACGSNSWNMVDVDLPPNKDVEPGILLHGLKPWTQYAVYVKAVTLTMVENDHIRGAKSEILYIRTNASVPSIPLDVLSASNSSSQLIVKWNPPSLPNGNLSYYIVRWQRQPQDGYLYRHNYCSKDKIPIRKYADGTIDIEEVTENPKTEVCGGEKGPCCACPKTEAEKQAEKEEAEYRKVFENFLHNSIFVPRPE

C[C@H](CCC(=O)O)[C@H]1CC[C@H]2[C@@H]3CC[C@@H]4C[C@H](O)CC[C@]4(C)[C@H]3CC[C@]12C [LCA, lithocholic acid]
reduction of EphA2-ephrinA1 binding (library screening) (EphA2-ephrinA1 binding; 200 µM, incubated 1 hour): significantly reduce
decrease of EphA2-ephrinA1 binding (EphA2-ephrinA1 binding; bile acids, repeat of the 200 µM experiment): 68.2%±4.3
Ki (EphA2-ephrinA1 binding; corresponding to pKi, read-out: Ki (Schild plot)): 49 µM
IC50 (EphA2-ephrinA1 binding; read-out: IC50 displacement of biotinylated-ephrinA1-Fc from EphA2): 57 µM
slope of Schild plot (EphA2-ephrinA1 binding; saturation curves with increasing LCA, r^2 = 0.9664): 0.8618
effect on EphA2 enzymatic activity (EphA2 [1]): did not modify enzymatic activity
effect on IGFR1β activity as agonist or antagonist (IGFR1β): failed to affect activity
displacement of ephrin-A1-Fc ectodomain from immobilized EphA-Fc ectodomains (EphA kinases): dose-dependently displaced
effect on IRKβ activity as agonist or antagonist (IRKβ): failed to affect activity
effect on EGF-induced EGFR phosphorylation (EGFR): completely inactive
effect on VEGFR activity as agonist or antagonist (VEGFR): failed to affect activity
inhibition of EphA2 phosphorylation (EphA2 [2]; 10 µM): subthreshold
inhibition of EphA2 phosphorylation (EphA2 [2]; 100 µM): inhibiting completely
